According to patent US20230089867A1, “CYCLIC PENTAMER COMPOUNDS AS PROPROTEIN CONVERTASE SUBTILISIN/KEXIN TYPE 9 (PCSK9) INHIBITORS FOR THE TREATMENT OF METABOLIC DISORDER” (Novartis AG, priority 2018, published 2023):

Target: human PCSK9 (Homo sapiens, UniProt Q8NBP7)
Assay: PCSK9 ligand binding TR-FRET assay (interference with binding of human PCSK9 to human LDLR)
Details: for Max % inhibition: PCSK9 FRET assay, efficacy (Amax), 100% = 1 uM unlabeled human PCSK9, 0% = DMSO; for IC50: TR-FRET, human PCSK9 Alexa Fluor 647 / human LDLR extracellular domain-Europium Kryptate, read-out: PCSK9 FRET Assay IC50
Description: The PCSK9 binding of the compounds of the disclosure were measured using a time resolved fluorescence resonance energy transfer (TR-FRET) assay. This time resolved fluorescence resonance energy transfer (TR-FRET) assay measures the ability of a compound of the present disclosure to interfere with the binding of human PCSK9 to human LDLR, providing measures of both potency (IC50) and efficacy (Amax).
These solutions were pipetted into columns 1 and 11 of the compound plate. Threefold serial dilutions were generated in columns 2-10 and 12-20 of the compound plate by transferring 10 uL into 20 uL of DMSO. Columns 21 and 22 of the compound plate were negative controls containing DMSO alone.
An intermediate plate was generated in a Greiner V bottom plate by transferring 8 uL from each well of the master plate into a corresponding well containing 92 uL of assay buffer and mixing thoroughly.
A Proxi plate-low volume assay plate was used for the assay. […] For the positive control wells in columns 23 and 24 of the plate, 5 uL of unlabeled human PCSK9 was added at 4 uM in assay buffer containing 8% DMSO. Following a 30 minute incubation, 5 uL of 4 nM Human LDLR extracellular domain-Europium Kryptate was added and the mixture was incubated for an additional 2 hours.
The FRET ratio (FRET/Europium) was used for calculations.
Data is expressed as percent inhibition: (value−0%)/(100%−0%).

human PCSK9, sequence (Q8NBP7 153-692): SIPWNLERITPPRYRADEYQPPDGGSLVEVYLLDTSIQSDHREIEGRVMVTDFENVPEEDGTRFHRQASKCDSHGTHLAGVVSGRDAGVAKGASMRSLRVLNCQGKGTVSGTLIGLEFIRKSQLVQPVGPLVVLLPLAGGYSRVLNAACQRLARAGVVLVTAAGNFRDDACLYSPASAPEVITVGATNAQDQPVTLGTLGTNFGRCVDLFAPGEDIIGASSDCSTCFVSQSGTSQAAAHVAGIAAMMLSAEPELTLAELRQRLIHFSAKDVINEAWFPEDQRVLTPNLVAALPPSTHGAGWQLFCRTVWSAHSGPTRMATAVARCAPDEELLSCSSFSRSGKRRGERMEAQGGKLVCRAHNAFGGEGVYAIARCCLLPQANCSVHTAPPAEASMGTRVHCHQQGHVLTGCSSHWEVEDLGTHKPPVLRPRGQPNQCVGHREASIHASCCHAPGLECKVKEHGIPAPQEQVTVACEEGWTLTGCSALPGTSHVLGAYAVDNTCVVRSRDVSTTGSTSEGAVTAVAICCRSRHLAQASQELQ
human PCSK9, sequence (Q8NBP7 31-152 partner limits assumed): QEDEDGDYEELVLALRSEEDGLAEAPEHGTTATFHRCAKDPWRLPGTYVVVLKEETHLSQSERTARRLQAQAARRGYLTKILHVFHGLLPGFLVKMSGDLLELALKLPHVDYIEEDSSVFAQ

| Structure (SMILES) | Max % inhibition [%] | IC50 [nM] |
| --- | --- | --- |
| COC[C@@H]1NC(=O)[C@H](C)N(Cc2ccc(Cl)cc2Oc2ccc(-c3cnc(CN4CCCC4)n3C)cc2)C(=O)C[C@@H](Cc2ccc(F)cc2F)C(=O)N(C)[C@@H](C)CNC(=O)C[C@H](Cc2ccc(Cl)cc2)N(C)C1=O [Compound 22, (2S,5S,8S,13S,16R)-1-(4-chloro-2-(4-(1-methyl-2-(pyrrolidin-1-ylmethyl)-1H-imidazol-5-yl)phenoxy)benzyl)-8-(4-chlorobenzyl)-16-(2,4-difluorobenzyl)-5-(methoxymethyl)-2,7,13,14-tetramethyl-1,4,7,11,14-pentaazacyclooctadecane-3,6,10,15,18-pentaone] | 98.82 | 1.1 |
| CCc1ccc(CN2C(=O)C[C@@H](Cc3ccccc3)C(=O)N(C)[C@H]3CCCC[C@@H]3NC(=O)C[C@H](Cc3ccc(Cl)cc3)N(C)C(=O)[C@H](COC)NC(=O)[C@@H]2C)c(Oc2ccc(-c3cnc(CN4CC5(COC5)C4)n3C)cc2)c1 [Compound 23, (4S,7S,10S,14R,16aS,20aS)-11-(2-(4-(2-(2-oxa-6-azaspiro[3.3]heptan-6-ylmethyl)-1-methyl-1H-imidazol-5-yl)phenoxy)-4-ethylbenzyl)-14-benzyl-4-(4-chlorobenzyl)-7-(methoxymethyl)-5,10,16-trimethylhexadecahydrobenzo[l][1,4,7,11,14]pentaazacyclooctadecine-2,6,9,12,15(3H)-pentaone] | 96.76 | 2.2 |
| C[C@H]1CNC(=O)C[C@H](Cc2ccc(Cl)cc2)NC(=O)[C@H](CF)NC(=O)[C@H](C)N(Cc2ccc(Cl)cc2Oc2ccc(-c3cnc(CN4CCCC4)n3C)cc2)C(=O)C[C@@H](Cc2ccccc2)C(=O)N1C [Compound 25, (2S,5R,8S,13S,16R)-16-benzyl-1-(4-chloro-2-(4-(1-methyl-2-(pyrrolidin-1-ylmethyl)-1H-imidazol-5-yl)phenoxy)benzyl)-8-(4-chlorobenzyl)-5-(fluoromethyl)-2,13,14-trimethyl-1,4,7,11,14-pentaazacyclooctadecane-3,6,10,15,18-pentaone] | 52.86 | 113 |
| COC[C@H]1CNC(=O)C[C@H](Cc2ccc(Cl)cc2)N(C)C(=O)[C@H](COC)NC(=O)[C@H](C)N(Cc2ccc(Cl)cc2Oc2ccc(-c3cnc(CN(C)C)n3C)cc2)C(=O)C[C@@H](Cc2ccccc2)C(=O)N1C [Compound 27, (2S,5S,8S,13R,16R)-16-benzyl-1-(4-chloro-2-(4-(2-((dimethylamino)methyl)-1-methyl-1H-imidazol-5-yl)phenoxy)benzyl)-8-(4-chlorobenzyl)-5,13-bis(methoxymethyl)-2,7,14-trimethyl-1,4,7,11,14-pentaazacyclooctadecane-3,6,10,15,18-pentaone] | 101.53 | 1.1 |

Continued, values first:

| Max % inhibition [%] | IC50 [nM] | Structure (SMILES) |
| --- | --- | --- |
| 102.04 | 3.6 | COC[C@@H]1NC(=O)[C@H](C)N(Cc2ccc(Cl)cc2Oc2ccc(-c3cnc(C4CCCN4C)n3C)cc2)C(=O)C[C@@H](Cc2ccccc2)C(=O)N(C)[C@@H](C)CNC(=O)C[C@H](Cc2ccc(Cl)cc2)N(C)C1=O (stereo partly drawn) [Compound 28, (2S,5S,8S,13S,16R)-16-benzyl-1-(4-chloro-2-(4-(1-methyl-2-(1-methylpyrrolidin-2-yl)-1H-imidazol-5-yl)phenoxy)benzyl)-8-(4-chlorobenzyl)-5-(methoxymethyl)-2,7,13,14-tetramethyl-1,4,7,11,14-pentaazacyclooctadecane-3,6,10,15,18-pentaone] |
| 94.90 | 0.6 | COC[C@@H]1NC(=O)[C@H](CCN(C)C)N(Cc2ccc(Cl)cc2Oc2ccc(-c3cnc(CN(C)C)n3C)cc2)C(=O)C[C@@H](Cc2ccccc2)C(=O)N(C)[C@H]2CCCC[C@@H]2NC(=O)C[C@H](Cc2ccc(Cl)cc2)N(C)C1=O [Compound 29, (4S,7S,10S,14R,16aS,20aS)-14-benzyl-11-(4-chloro-2-(4-(2-((dimethylamino)methyl)-1-methyl-1H-imidazol-5-yl)phenoxy)benzyl)-4-(4-chlorobenzyl)-10-(2-(dimethylamino)ethyl)-7-(methoxymethyl)-5,16-dimethylhexadecahydrobenzo[l][1,4,7,11,14]pentaazacyclooctadecine-2,6,9,12,15(3H)-pentaone] |
